Source: patent US10144742B2 (Millennium Pharmaceuticals, Inc., priority 2014, dated 2018)

Assays:
[1] = biological target: hNAMPT protein (Homo sapiens (Human), UniProt P43490); assay: NAMPT enzyme assay (TR-FRET/HTRF, BodiPY ligand, anti 6His-Tb); format: binding; settings: for IC50: NAMPT IC50 range class, read-out: IC50; for inhibition at 1 µM: compound concentration 1 μM, read-out: Percent Inhibition
Source text: As discussed above, the invention provides compounds that are useful as inhibitors of the enzyme NAMPT. The NAMPT inhibition of a compound of the invention can be measured using a variety of methods known in the art. For example, the ability of a compound of the invention to inhibit NAMPT enzyme activity can be measured using a homogeneous time resolved fluorescence (HTRF) assay using hNAMPT protein and anti 6His-Tb in buffer treated with a compound of the invention (or control e.g., DMSO) and BodiPY ligand. The TR-FRET signal can be measured using a high throughput microplate reader (e.g., Pherastar). Excitation can be carried out at 320 nm. The percent inhibition value at a single concentration of compound of the invention can be calculated relative to a control treated sample. A concentration response curve can be generated for each compound of the invention and the curve fitted to generate an IC50 value. […] Cat. No. […] To this solution is added test compounds or vehicle control (DMSO) and BodiPY ligand (structure below). The plate is shaken for 1-2 min, sealed and incubated for 1 hour at rt in the dark. The TR-FRET signal is measured using BMG Pherastar (Lanthascreen protocol on BMG Pherastar). Excitation was carried out at 320 nm, and the ratio of emission of BodiPY (520 nm) to terbium (486 nm) was determined. Concentration response curves are generated by calculating the excitation increase in test compound-treated samples relative to DMSO-treated controls. For the assay method described above, test compound percent inhibition values at a single concentration are calculated relative to control (DMSO) treated samples. Compound concentration response curves are fitted to generate IC50 values from those curves. One skilled in the art will appreciate that these values generated either as percentage inhibition at a single concentration or IC50 values are subject to experimental variation.

[2] = system: PC3 cells; assay: PC3 growth inhibition (Cell-titer glo, 72 hours); format: cell-based; settings: Homo sapiens, PC-3, PC3 cells, 72 hours, Cell-titer glo, read-out: Percent Inhibition (PC3 growth inhibition); for inhibition at 1 µM: compound concentration 1 μM; for inhibition at 1.667 µM: compound concentration 1.667 μM
Procedure: The ability of a compound of the invention to inhibit the growth of cells can be measured using a variety of methods known in the art. For example, the ability of a compound of the invention to inhibit the growth of PC3 cells can be measured. PC3 cells can be plated and incubated overnight under CO2. For each measurement, a compound of the invention (or vehicle e.g., DMSO) can be diluted with AIM serum free medium and added to the cell plate. The cell plate can then be incubated for 72 h under CO2. Cell-titer glo solution can be added and the plates can be incubated protected from light and the amount of luminescences can be measured. Concentration response curves can be generated by calculating the luminescence increase in test compound treated samples relative to DMSO-treated controls. Percentage remaining viability values at a single concentration can be measured. Growth inhibition (GI50) or cell viability (LD50) values can be determined from those curves.
Compounds of the invention were assayed to measure PC3 growth inhibition at a concentration of 1 μM or 1.667 μM (Table 3). To measure PC3 growth inhibition, PC3 cells that were maintained in PRMI1640 growth medium (Life Technologies; Cat. No. 11875) at 37° C. under 5% CO2 are trypsinized and diluted at a density of 8×10^4 cells/ml, 25 ul per well of cells and plated in 384-well black tissue culture plate. The cells are incubated overnight at 37° C. under 5% CO2. For each measurement, a test compounds or vehicle control (DMSO) are diluted with AIM serum free medium and added to the cell plate. Incubate for 72 hours at 37° C. under 5% CO2. 25 μl Cell-titer glo solution (Promega; Cat. No. G8462) is added and the cell plates are incubated for 10 minutes protected from light. The luminescence is measured. Concentration response curves are generated by calculating the luminescence increase in test compound-treated samples relative to DMSO-treated controls. Percentage remaining viability values at a single concentration, growth inhibition (GI50) or cell viability (LD50) values are determined from those curves. One skilled in the art will appreciate that these values are subject to experimental variation.

Sequence of hNAMPT protein (P43490 whole entry): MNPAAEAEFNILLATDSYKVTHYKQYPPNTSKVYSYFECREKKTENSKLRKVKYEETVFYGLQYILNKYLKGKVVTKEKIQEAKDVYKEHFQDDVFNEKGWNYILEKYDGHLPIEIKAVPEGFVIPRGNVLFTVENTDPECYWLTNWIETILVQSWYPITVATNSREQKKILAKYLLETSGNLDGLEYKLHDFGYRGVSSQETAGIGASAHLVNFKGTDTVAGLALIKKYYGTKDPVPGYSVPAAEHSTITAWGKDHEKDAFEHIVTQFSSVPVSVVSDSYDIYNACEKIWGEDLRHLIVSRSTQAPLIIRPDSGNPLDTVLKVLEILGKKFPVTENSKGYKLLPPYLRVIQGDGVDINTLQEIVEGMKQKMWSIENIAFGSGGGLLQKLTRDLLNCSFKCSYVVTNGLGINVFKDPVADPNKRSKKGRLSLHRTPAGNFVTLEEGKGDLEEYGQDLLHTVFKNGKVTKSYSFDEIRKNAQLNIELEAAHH

SMILES | IC50 [1] | inhibition at 1 µM [1] | inhibition at 1 µM [2] | inhibition at 1.667 µM [2]
Cn1cc2c(n1)CN(C(=O)c1ccc3nc(-c4ccc(F)cc4)c(-c4ccc(F)cc4)nc3c1)CC2 [Compound I-22, [2,3-bis(4-fluorophenyl)quinoxalin-6-yl](2-methyl-2,4,5,7-tetrahydro-6H-pyrazolo[3,4-c]pyridin-6-yl)methanone] | 1000 to 2000 nM | 41% | 96% | 
O=C(NCCCc1ncc[nH]1)c1ccc2nc(N3CCC(N4CCOCC4)CC3)c(-c3ccc(F)cc3)nc2c1 [Compound I-23, 3-(4-fluorophenyl)-N-[3-(1H-imidazol-2-yl)propyl]-2-[4-(morpholin-4-yl)piperidin-1-yl]quinoxaline-6-carboxamide] | < 100 nM | 100% |  | 2%
Cc1nc(C)c(-c2nc3ccc(C(=O)NCCCn4ccnc4)cc3nc2-c2ccccc2)s1 [Compound I-24, 2-(2,4-dimethyl-1,3-thiazol-5-yl)-N-[3-(1H-imidazol-1-yl)propyl]-3-phenylquinoxaline-6-carboxamide] | 100 to 500 nM | 88% | -8% | 
O=C(NCCCc1cccnc1)c1ccc2nc(N3CCC(O)CC3)c(-c3ccc(F)cc3)nc2c1 [Compound I-25, 3-(4-fluorophenyl)-2-(4-hydroxypiperidin-1-yl)-N-[3-(pyridin-3-yl)propyl]quinoxaline-6-carboxamide] | < 100 nM | 98% |  | 2%
Cc1nccn1CCNC(=O)c1ccc2nc(-c3ccc(F)cc3)c(-c3ccc(F)cc3)nc2c1 [Compound I-26, 2,3-bis(4-fluorophenyl)-N-[2-(2-methyl-1H-imidazol-1-yl)ethyl]quinoxaline-6-carboxamide] | 1000 to 2000 nM | 37% | 99% | 
CC(C)(C)OC(=O)NCC1CCN(C2CCN(c3nc4ccc(C(=O)NCCCn5ccnc5)cc4nc3-c3ccccc3)CC2)CC1 [Compound I-27, tert-butyl{[1′-(6-{[3-(1H-imidazol-1-yl)propyl]carbamoyl}-3-phenylquinoxalin-2-yl)-1,4′-bipiperidin-4-yl]methyl}carbamate] | < 100 nM | 102% | -1% | 
O=C(c1ccc2nc(-c3ccc(F)cc3)c(-c3ccc(F)cc3)nc2c1)N1CCn2nncc2C1 [Compound I-28, [2,3-bis(4-fluorophenyl)quinoxalin-6-yl](6,7-dihydro[1,2,3]triazolo[1,5-a]pyrazin-5(4H)-yl)methanone] | 2000 to 10000 nM | 19% | 94% | 
O=C(c1ccc2nc(-c3ccc(F)cc3)c(-c3ccc(F)cc3)nc2c1)N1CCC(c2cccnc2)C1 (stereo not drawn) [Compound I-29, [2,3-bis(4-fluorophenyl)quinoxalin-6-yl][3-(pyridin-3-yl)pyrrolidin-1-yl]methanone] | 2000 to 10000 nM | 36% | 96% | 
O=C(NCCCn1ccnc1)c1ccc2nc(N3CCC4(CC3)COC4)c(-c3ccccc3)nc2c1 [Compound I-30, N-[3-(1H-imidazol-1-yl)propyl]-2-(2-oxa-7-azaspiro[3.5]non-7-yl)-3-phenylquinoxaline-6-carboxamide] | 100 to 500 nM | 83% | -7% | 
CC1(C)CN(c2nc3ccc(C(=O)NCCCn4ccnc4)cc3nc2-c2ccccc2)CCO1 [Compound I-31, 2-(2,2-dimethylmorpholin-4-yl)-N-[3-(1H-imidazol-1-yl)propyl]-3-phenylquinoxaline-6-carboxamide] | < 100 nM | 89% | -7% | 
O=C(NCCCc1cccnc1)c1ccc2nc(-c3ccc(F)cc3)c(-c3ccc(F)cc3)nc2c1 [Compound I-32, 2,3-bis(4-fluorophenyl)-N-[3-(pyridin-3-yl)propyl]quinoxaline-6-carboxamide] | 100 to 500 nM | 78% | -5% | 
Cn1cnc2c1CN(C(=O)c1ccc3nc(-c4ccc(F)cc4)c(-c4ccc(F)cc4)nc3c1)CC2 [Compound I-33, [2,3-bis(4-fluorophenyl)quinoxalin-6-yl](3-methyl-3,4,6,7-tetrahydro-5H-imidazo[4,5-c]pyridin-5-yl)methanone] | 2000 to 10000 nM | 20% | 92% | 
C[C@@H]1CN(c2nc3cc(C(=O)NCCCn4ccnc4)ccc3nc2-c2ccccc2)C[C@H](C)O1 [Compound I-34, cis-3-[(2R,6S)-2,6-dimethylmorpholin-4-yl]-N-[3-(1H-imidazol-1-yl)propyl]-2-phenylquinoxaline-6-carboxamide] | 1000 to 2000 nM | 47% | -6% | 
O=C(NCCCc1c[nH]cn1)c1ccc2nc(N3CCOCC3)c(-c3ccc(F)cc3)nc2c1 [Compound I-35, 3-(4-fluorophenyl)-N-[3-(1H-imidazol-4-yl)propyl]-2-(morpholin-4-yl)quinoxaline-6-carboxamide] | < 100 nM | 90% |  | 2%
COc1ccccc1-c1nc2cc(C(=O)NCCCn3ccnc3)ccc2nc1-c1ccccc1 [Compound I-36, N-[3-(1H-imidazol-1-yl)propyl]-3-(2-methoxyphenyl)-2-phenylquinoxaline-6-carboxamide] | 100 to 500 nM | 51% | 1% | 
O=C(NCCCn1ccnc1)c1ccc2nc(N3CC4CC3CO4)c(-c3ccccc3)nc2c1 (stereo not drawn) [Compound I-37, N-[3-(1H-imidazol-1-yl)propyl]-2-(2-oxa-5-azabicyclo[2.2.1]hept-5-yl)-3-phenylquinoxaline-6-carboxamide] | 500 to 1000 nM | 65% | -6% | 
Cn1cnc2cc(-c3nc4ccc(C(=O)NCCCn5ccnc5)cc4nc3-c3ccccc3)ccc21 [Compound I-38, N-[3-(1H-imidazol-1-yl)propyl]-2-(1-methyl-1H-benzimidazol-5-yl)-3-phenylquinoxaline-6-carboxamide] | < 100 nM | 94% | -8% | 
O=C(NCCCc1ncc[nH]1)c1ccc2nc(N3CCOCC3)c(-c3ccc(F)cc3)nc2c1 [Compound I-39, 3-(4-fluorophenyl)-N-[3-(1H-imidazol-2-yl)propyl]-2-(morpholin-4-yl)quinoxaline-6-carboxamide] | < 100 nM | 97% |  | 2%
O=C(NCCCn1ccnc1)c1ccc2nc(-c3ccccc3)c(-c3cncnc3)nc2c1 [Compound I-41, N-[3-(1H-imidazol-1-yl)propyl]-2-phenyl-3-(pyrimidin-5-yl)quinoxaline-6-carboxamide] | 2000 to 10000 nM | 17% | 5% | 
O=C(NCCCc1nccs1)c1ccc2nc(N3CCC(N4CCOCC4)CC3)c(-c3ccc(F)cc3)nc2c1 [Compound I-42, 3-(4-fluorophenyl)-2-[4-(morpholin-4-yl)piperidin-1-yl]-N-[3-(1,3-thiazol-2-yl)propyl]quinoxaline-6-carboxamide] | < 100 nM | 96% |  | > 99%
O=C(NCCc1ccc2[nH]cnc2c1)c1ccc2nc(-c3ccc(F)cc3)c(-c3ccc(F)cc3)nc2c1 [Compound I-43, N-[2-(1H-benzimidazol-5-yl)ethyl]-2,3-bis(4-fluorophenyl)quinoxaline-6-carboxamide] | 2000 to 10000 nM | 23% | 16% | 
